Columns and labels:
[1] = tested on: glucose uptake in cultured cells; test: In vitro glucose uptake / hexose transport in cultured cells with xylose derivatives (Table 2); type: cell-based
Description: Table 2 summarizes in vitro results obtained with some of these newly synthesized xylose derivatives.
(§1) Uptake assay of the tritiated glucose analogue, 2-deoxy-D-glucose, is routinely performed as described in [Sasson, S. and Cerasi, E. (1986) J. Biol. Chem. 261, 16827-16833].
All new compounds are screened and tested first in various insulin-sensitive cell cultures used routinely in the laboratory (skeletal muscle and adipose cell lines). In addition these drugs were tested in non-insulin-sensitive cells such as primary cultures of bovine and porcine vascular endothelial and smooth muscle cells. Active compounds were tested ex-vivo on isolated rat soleus muscles. All cell cultures and tissues were maintained under hyperglycemic condition prior to the addition of the test compounds. Dose-response and time-course experiments determine which of the derivatives are subsequently tested in animal models. For each potent compound the total cell content and plasma membrane abundance of GLUT-1 and GLUT-4 was determined, as described above. The same biotinylation technique was employed to determine the total and plasma membrane content of both transporters in isolated mouse or rat soleus muscles treated with potent compounds.

L6 myotubes = test: dGlc uptake assay in L6 myotubes; type: cell-based, rat; conditions: for effect of PI3-kinase inhibitor LY-249002 on the substance's stimulation of hexose transport: 60 μM inhibitor, 23.0 mM glucose (FIG. 11A), EH-40 data not shown
Description: (§2) FIG. 10: Western blot depicting effect of 3-O-propyl-D-xylose (EH-114), and 1,3-O-dimethylxylopyranoside (EH-101) on the total cell content and plasma membrane abundance of GLUT-4 in the absence or presence of insulin. L6 myotubes were maintained for 48 hr at 23 mM Glucose. The cells were than washed and received fresh medium containing the indicated additions and incubated for additional […]. Insulin was added during the last 30 min of incubation before the dGlc uptake assay.
FIG. 11A: Effect of LY-249002, a PI3-kinase inhibitor, on insulin, D-xylose, EH-101 and EH-114-mediated glucose uptake. L6 myotubes were treated as described in the legend to FIG. 10. The glucose concentration in the culture medium was 23.0 mM. The concentration of LY-294002 was 60 μM. At the end of incubation the cells were taken for the standard dGlc uptake assay. Mean±SEM, n=3.
(§3) GLUT-1 and GLUT-4 mediate glucose entry into L6 myotubes. It is established that GLUT-4 is translocated effectively and rapidly to the plasma membrane upon insulin treatment. The inventors looked at the effect of 3-O-propyl-D-xylose EH-114) and 1,3-O-dimethylxylopyranoside (EH-101) on the total cell content and plasma membrane abundance of these transporters in the absence or presence of insulin. L6 myotubes were maintained at 5.0 or 23.0 mM glucose for 48 hr and EH-114 and EH-101 were present during the last 24 hr. The cells were then taken for the standard [^3H]-2-deoxy-D-glucose uptake assay and for the biotinylation procedure for determining the amount of GLUT-1 and GLUT-4 in the plasma membrane. High glucose levels decreased the hexose transport rate by ˜50%. Insulin augmented the transport nearly 2-fold in both cases. EH-114 and EH-101 increased the transport rate 2-3-fold in the absence of insulin. Together with insulin the uptake rate was increased nearly 3-fold.
The inventors also tested the hypothesis that the active D-xylose derivatives augment the hexose transport capacity in L6 myotubes by translocating GLUT-4 to the plasma membrane not via the common insulin-regulated pathway. For this experiment, a selective inhibitor of the enzyme PI3-kinase, LY-249002, which is a key enzyme in the cellular transduction mechanism of insulin, was utilized. […] These findings also agree well with the longer onset of action of these derivatives as compared to the rapid action of insulin. Similar results were obtained when LY-249002 was present together with the derivatives throughout the entire incubation period.
as §1

GLUT-4 = test: Cell surface biotinylation and western blot of GLUT-4 in L6 myotubes; type: cell-based, rat; conditions: for translocation of GLUT-4 to the plasma membrane: L6 myotubes, xylose derivatives in the absence of insulin, insulin 500 nM (FIG. 10)
Description: as §2, §3
Surface biotinylation of the cells was performed as previously described [Sasson et al (1997), Diabetologia, 40, 30-398].

PKB = PKB phosphorylation immunoblot in L6 myotubes; type: cell-based, rat; conditions: 23.0 mM glucose; 100 nM insulin, 20 mM xylose, 5 mM EH-114 or 250 μM EH-40, up to 24 hrs (FIG. 11B)
Description: FIG. 11B: Effects of insulin D-xylose and xylose derivatives on PKB phosphorylation. L6 myotubes were maintained at 5.5 mM or 23.0 mM glucose. The latter were treated with 100 nM insulin, 20 mM xylose, 5 mM EH-114 or 250 μM EH-40 up to 24 hrs. At the indicated times treated myotubes were collected, homogenized and lysed and the soluble protein fraction was isolated. The control myotubes were collected at the end of the 24 hr incubation period. Equal amounts of proteins of the various treated myotubes were separated on SDS-PAGE and immunoblotted with a specific antibody against phospho-Axt1/PKBα (Ser473). In order to test whether xylose derivative activate insulin transduction elements downstream of PI3K, the inventors tested the state of PKB phosphorylation, as shown in FIG. 11B.

GLUT-1 = test: Cell surface biotinylation and western blot of GLUT-1 in L6 myotubes; type: cell-based, rat; conditions: data not shown
Description: as §3
FIG. 10 presents the western blots showing the results of such a representative experiment. Under hyperglycemic conditions the total cell content of GLUT-4 was reduced as well as its plasma membrane abundance [lanes 1 & 2 for Total cell content and PM (plasma membrane) fractions]. […]

Row | EC50 ([1]; EC = Effective concentration) | effect of PI3-kinase inhibitor LY-249002 on the substance's stimulation of hexose transport (L6 myotubes) | Compound | Fold Increase of Glucose Uptake [1] | ECmax ([1]; EC = Effective concentration) | duration of activity following removal from the culture media ([1]; after being washed from cell cultures) | increase of uptake rate together with insulin (L6 myotubes; L6 myotubes, compound during last 24 hr plus insulin) | total cell content of GLUT-4 (GLUT-4; L6 cells exposed to 23.0 mM glucose (FIG. 10)) | translocation of GLUT-4 to the plasma membrane (GLUT-4) | PKB phosphorylation (PKB) | augmentation of transport by insulin (L6 myotubes; at 5.0 and 23.0 mM glucose) | effect on GLUT-1 (blots with anti GLUT-1 antibody) (GLUT-1)
1 | 3 mM | failed to affect | CCCO[C@@H]([C@H](O)CO)[C@@H](O)C=O [EH-114, 3-O-propyl-D-xylose] | 2.6 fold | 4.5 mM | 24 h | ~3 fold | increased the total content of the transporter | induced significant translocation of GLUT-4 to the plasma membrane | failed to induce significant phosphorylation |  | 
2 |  | eliminated the stimulatory effect | Insulin: insulin, hormone used as positive control for glucose transport stimulation [reference compound] |  |  |  |  |  | translocation of GLUT-4 to the plasma membrane | prominent, but transient phosphorylation | ~2 fold | no effect

From US7812142B2, “Pentose derivatives as anti-hyperglycemic drugs” (Yissum Research Development Company of the Hebrew …, priority 2002, dated 2010)
